A short description of data set [1]: Mouse liver microsomal stability. Type of data set: in vitro ADME. The conditions noted are these: stability in pooled mouse (CD-1, male) liver microsomes 0.5 mg/ml, compound 1 μM, parent compound by LC/MS, in % (unit assumed). The method, then: (§1) Working stocks were initially diluted to a concentration of 40.0 μM in 0.1 M potassium phosphate buffer before addition to the reaction vials. Pooled mouse (CD-1, male) or human (50 donors) liver microsomes were utilized at a final concentration of 0.5 mg/ml. Duplicate wells were used for each time point (0 and 30 minutes). Reactions were carried out at 37° C. in a shaker, and the final concentration of DMSO was kept constant at 0.01%. The final volume for each reaction was 100 μL, which includes the addition of an NADPH-Regeneration solution (NRS) mix. This NRS mix is comprised of glucose 6-phosphate dehydrogenase (0.4 U/mL), NADP+ (1.3 mM), MgCl2 (3.3 mM), and glucose 6-phosphate (3.3 mM) in assay mixtures. Upon completion of the 30 minute time point, reactions were terminated by the addition of 1.5-volumes (150 μL) of ice-cold, acetonitrile with 0.5% formic acid and internal standard. Samples were then centrifuged at 4,000 rpm for 10 minutes to remove debris and precipitated protein. Approximately 150 μL of supernatant was subsequently transferred to a new 96 well microplate for LC/MS analysis.
(§2) Narrow-window mass extraction LC/MS analysis was performed for all samples using a Waters Xevo quadrupole time-of-flight (QTof) mass spectrometer and an ACQUITY UPLC system, to determine relative peak areas of parent compound.
(§3) Human and mouse liver microsomes contain a wide variety of drug metabolizing enzymes and are commonly used to support in vitro ADME (absorption, distribution, metabolism and excretion) studies. These microsomes are used to examine the potential first-pass metabolism by-products of orally administered drugs. Representative compounds of the application were evaluated for their stability in human and mouse liver microsomes.

A short description of data set [2]: Human liver microsomal stability. The data set is classed as in vitro ADME. The note with it: stability in pooled human (50 donors) liver microsomes 0.5 mg/ml, compound 1 μM, parent compound by LC/MS. The method, then: as §1, §2, §3
A general note: Liver microsomes are vesicles of endoplasmic reticulum, rich in cytochrome P450 enzymes.

For the next data set, the target named is T1, EGFR (Homo sapiens, UniProt P00533).
T1 construct: purchased Reaction Biology
The data set can be described thus: Kinase HotSpot profiling (Reaction Biology), 33P-ATP filter-binding. Type of data set: biochemical. The conditions noted are these: WT EGFR. The method, then:
(§4) Base Reaction buffer; 20 mM Hepes (pH 7.5), 10 mM MgCl2, 1 mM EGTA, 0.02% Brij35, 0.02 mg/ml BSA, 0.1 mM Na3VO4, 2 mM DTT, 1% DMSO
(§5) *Required cofactors are added individually to each kinase reaction
(§6) 1. The indicated substrate was prepared in fresh Base Reaction Buffer.
(§7) 2. Any required cofactors were added to the substrate solution above.
(§8) 3. Indicated kinase was added into the substrate solution and gently mixed.
(§9) 4. Compounds in DMSO were added into the kinase reaction mixture by Acoustic technology (Echo550; nanoliter range) and incubated for 20 minutes at room temperature.
(§10) 5. 33P-ATP (specific activity 10 μCi/μl) was added into the reaction mixture to initiate the reaction.
(§11) 6. The kinase reaction was incubated for 2 hours at room temperature
(§12) 7. Reactions were spotted onto P81 ion exchange paper.
(§13) 8. Kinase activity was detected by filter-binding method.
(§14) Representative compounds of Formula I were evaluated against WT EGFR and mutant EGFR (L858R and L858R, T790M) kinases. IC50 concentrations are illustrated in Table 9.

A further data set has as its target T2, EGFR (L858R) (Homo sapiens, UniProt P00533, L858R).
T2 construct: purchased Reaction Biology
The description is as above. Type of data set: biochemical. The note with it: mutant EGFR L858R. The method, then: as §4, §5, §6, §7, §8, §9, §10, §11, §12, §13, §14

In the next data set the target is T3, P-gp (Homo sapiens, UniProt P08183).
T3 construct: host or cells: Caco-2 (C2BBe1)
The data set can be described thus: Evaluation of P-gp efflux in Caco-2 cell monolayers.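 Note: Caco-2 monolayers dosed apically or basolaterally with test compound at 5 µM in HBSS with HEPES and glucose, 37 °C, donor and receiver sampled after 120 min, LC/MS peak areas.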 The data set is classed as in vitro ADME. For orientation: Caco-2 monolayers are a common model of the intestinal barrier.

Data set [3] can be described thus: Brain concentrations after PO administration in rat, peak at 8 hours (Table 5). The data set is classed as in vivo. The conditions noted are these: brain, PO 50 mg/kg, Table 5 (8 hours).
Setting [4] is: Caco-2, pH 7.4, with none (verapamil 0 μM), Caco-2, Verapamil 0 μM, read-out: Recovery (%) AP-BL.
[5] abbreviates: Caco-2, pH 7.4, with none (verapamil 0 μM), Caco-2, Verapamil 0 μM, read-out: Recovery (%) BL-AP.
Setting [6] is: Caco-2, pH 7.4, with verapamil 100 μM, Caco-2, Verapamil 100 μM, read-out: Recovery (%) AP-BL.
Where [7] appears, read: Caco-2, pH 7.4, with verapamil 100 μM, Caco-2, Verapamil 100 μM, read-out: Recovery (%) BL-AP.

Structures can show the parent of a compound that is named as a salt. Where two headings read alike, the source gives them in different places.

T3 sequence (P08183 whole entry): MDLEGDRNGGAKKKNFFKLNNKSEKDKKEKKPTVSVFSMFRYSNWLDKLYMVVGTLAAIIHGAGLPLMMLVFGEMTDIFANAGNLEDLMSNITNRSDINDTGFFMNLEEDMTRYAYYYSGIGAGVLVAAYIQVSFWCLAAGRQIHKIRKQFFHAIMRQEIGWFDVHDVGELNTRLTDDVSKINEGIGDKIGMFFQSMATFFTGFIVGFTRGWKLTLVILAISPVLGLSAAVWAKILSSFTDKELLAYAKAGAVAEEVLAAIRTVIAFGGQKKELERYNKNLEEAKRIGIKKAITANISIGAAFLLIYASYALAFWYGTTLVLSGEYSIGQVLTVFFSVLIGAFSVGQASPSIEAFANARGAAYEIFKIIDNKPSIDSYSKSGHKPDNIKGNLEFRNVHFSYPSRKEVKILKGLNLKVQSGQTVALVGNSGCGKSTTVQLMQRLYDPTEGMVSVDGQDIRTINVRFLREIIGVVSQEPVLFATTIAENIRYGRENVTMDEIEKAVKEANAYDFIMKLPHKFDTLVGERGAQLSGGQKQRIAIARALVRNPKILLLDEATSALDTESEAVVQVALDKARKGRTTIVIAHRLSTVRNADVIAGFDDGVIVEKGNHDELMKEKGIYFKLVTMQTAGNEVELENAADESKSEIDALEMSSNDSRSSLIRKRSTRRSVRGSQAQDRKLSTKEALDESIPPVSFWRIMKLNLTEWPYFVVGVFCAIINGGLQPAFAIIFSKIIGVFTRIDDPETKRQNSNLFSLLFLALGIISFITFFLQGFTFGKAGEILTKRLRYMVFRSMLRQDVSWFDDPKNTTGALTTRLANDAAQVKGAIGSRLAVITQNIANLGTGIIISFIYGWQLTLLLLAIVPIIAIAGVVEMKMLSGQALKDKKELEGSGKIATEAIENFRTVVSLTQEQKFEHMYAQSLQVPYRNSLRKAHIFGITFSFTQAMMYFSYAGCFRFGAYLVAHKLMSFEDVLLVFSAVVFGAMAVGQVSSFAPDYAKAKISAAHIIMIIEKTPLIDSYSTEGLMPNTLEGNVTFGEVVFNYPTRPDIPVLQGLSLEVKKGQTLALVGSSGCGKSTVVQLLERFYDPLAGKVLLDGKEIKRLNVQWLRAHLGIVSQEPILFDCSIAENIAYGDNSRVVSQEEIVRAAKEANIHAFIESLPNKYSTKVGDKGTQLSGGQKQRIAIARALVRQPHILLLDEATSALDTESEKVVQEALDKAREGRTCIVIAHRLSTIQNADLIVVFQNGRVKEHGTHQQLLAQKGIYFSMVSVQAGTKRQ
T1 sequence (P00533 25-1210): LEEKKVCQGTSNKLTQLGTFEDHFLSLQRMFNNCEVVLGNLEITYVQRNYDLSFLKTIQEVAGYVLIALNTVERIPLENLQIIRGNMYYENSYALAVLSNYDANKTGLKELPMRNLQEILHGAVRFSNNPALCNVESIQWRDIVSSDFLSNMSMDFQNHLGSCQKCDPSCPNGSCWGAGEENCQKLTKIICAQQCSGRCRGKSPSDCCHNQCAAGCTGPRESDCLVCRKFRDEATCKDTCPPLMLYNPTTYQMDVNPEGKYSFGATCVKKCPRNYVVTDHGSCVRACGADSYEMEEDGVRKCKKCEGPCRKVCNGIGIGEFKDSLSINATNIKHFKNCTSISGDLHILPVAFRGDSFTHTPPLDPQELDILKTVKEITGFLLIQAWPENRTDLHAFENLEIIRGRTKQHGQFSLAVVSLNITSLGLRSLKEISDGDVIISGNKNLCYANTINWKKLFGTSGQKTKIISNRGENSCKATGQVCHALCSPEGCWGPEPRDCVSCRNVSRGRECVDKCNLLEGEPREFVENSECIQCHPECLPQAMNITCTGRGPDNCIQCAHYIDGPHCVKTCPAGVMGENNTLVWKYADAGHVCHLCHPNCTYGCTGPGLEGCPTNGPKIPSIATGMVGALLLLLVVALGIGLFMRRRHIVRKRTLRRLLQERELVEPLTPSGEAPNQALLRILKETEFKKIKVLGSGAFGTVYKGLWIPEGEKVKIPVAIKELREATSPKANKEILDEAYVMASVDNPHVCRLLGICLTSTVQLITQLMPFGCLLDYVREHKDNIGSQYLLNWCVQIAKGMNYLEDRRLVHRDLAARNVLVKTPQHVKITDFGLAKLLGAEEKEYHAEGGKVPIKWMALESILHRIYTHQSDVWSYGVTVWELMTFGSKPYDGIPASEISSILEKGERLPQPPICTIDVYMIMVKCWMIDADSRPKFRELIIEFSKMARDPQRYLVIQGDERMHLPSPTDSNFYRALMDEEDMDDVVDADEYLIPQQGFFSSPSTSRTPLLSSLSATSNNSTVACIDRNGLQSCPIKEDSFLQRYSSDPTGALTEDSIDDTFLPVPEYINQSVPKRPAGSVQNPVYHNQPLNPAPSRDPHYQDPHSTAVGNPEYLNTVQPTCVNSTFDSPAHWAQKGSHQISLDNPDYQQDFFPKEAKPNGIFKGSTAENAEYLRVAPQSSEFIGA
T2 sequence (P00533 25-1210 L858R): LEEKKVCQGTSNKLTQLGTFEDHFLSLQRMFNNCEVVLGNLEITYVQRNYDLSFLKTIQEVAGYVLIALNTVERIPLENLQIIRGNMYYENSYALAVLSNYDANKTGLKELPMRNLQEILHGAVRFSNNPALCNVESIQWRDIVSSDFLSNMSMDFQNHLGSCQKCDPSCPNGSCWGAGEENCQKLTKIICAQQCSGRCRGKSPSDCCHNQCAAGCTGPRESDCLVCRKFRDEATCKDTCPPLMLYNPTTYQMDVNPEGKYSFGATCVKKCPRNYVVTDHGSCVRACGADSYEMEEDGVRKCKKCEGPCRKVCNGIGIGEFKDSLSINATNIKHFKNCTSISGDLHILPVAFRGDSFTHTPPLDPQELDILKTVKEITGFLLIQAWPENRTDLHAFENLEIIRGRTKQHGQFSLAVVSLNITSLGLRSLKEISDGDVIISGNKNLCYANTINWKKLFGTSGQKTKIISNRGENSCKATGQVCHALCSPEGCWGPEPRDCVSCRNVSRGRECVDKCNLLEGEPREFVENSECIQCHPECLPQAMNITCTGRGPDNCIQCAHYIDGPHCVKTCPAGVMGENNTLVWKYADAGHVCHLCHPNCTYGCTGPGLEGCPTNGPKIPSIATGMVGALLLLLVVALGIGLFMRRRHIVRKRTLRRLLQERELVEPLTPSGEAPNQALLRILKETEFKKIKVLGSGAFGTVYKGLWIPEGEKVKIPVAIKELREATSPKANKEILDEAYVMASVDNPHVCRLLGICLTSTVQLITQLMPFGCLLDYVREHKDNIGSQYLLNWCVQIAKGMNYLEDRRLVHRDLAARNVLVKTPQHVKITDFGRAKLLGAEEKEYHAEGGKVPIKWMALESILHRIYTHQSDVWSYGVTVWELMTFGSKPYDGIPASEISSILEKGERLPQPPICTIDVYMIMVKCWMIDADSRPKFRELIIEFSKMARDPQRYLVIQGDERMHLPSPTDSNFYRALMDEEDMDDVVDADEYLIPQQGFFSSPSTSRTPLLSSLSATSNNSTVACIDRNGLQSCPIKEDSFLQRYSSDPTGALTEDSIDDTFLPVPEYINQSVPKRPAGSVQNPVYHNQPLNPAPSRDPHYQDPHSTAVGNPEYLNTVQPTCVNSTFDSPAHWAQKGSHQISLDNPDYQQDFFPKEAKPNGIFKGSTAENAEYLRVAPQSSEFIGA

As to `FC(F)OCCOc1cc2ncnc(Nc3ccccc3Cl)c2cc1OCCOC(F)F` [2(Dd)], the “MLM (30 min)” value in data set [1] was found to be 22.2. Moreover, the HLM (30 min) in data set [2] turned out to be 54.7%.

For `FC(F)OCCOc1cc2ncnc(Nc3ccccc3C(F)(F)F)c2cc1OCCOC(F)F` [2(Ee), 6,7-bis[2-(difluoromethoxy)ethoxy]-N-[2-(trifluoromethyl)phenyl]quinazolin-4-amine], in data set [1], the “MLM (30 min)” value is 11.8. For the same compound, the HLM (30 min) in data set [2] is 49.2%.

`Fc1c(Cl)cccc1Nc1ncnc2cc(OCCOC(F)F)c(OCCOC(F)F)cc12` [2(Ff), N-(3-chloro-2-fluoro-phenyl)-6,7-bis[2-(difluoromethoxy)ethoxy]quinazolin-4-amine]: in data set [1], the “MLM (30 min)” value is 69.6. The HLM (30 min) in data set [2] amounted to 76.4%.

As for `FC(F)OCCOc1cc2ncnc(Nc3ccc(C(F)(F)F)cc3)c2cc1OCCOC(F)F` [2(Gg), 6,7-bis[2-(difluoromethoxy)ethoxy]-N-[4-(trifluoromethyl)phenyl]quinazolin-4-amine], in data set [1], the “MLM (30 min)” value came out at 106.2. The HLM (30 min) in data set [2] stood at 99.8%.

As to `Fc1ccccc1Nc1ncnc2cc(OCCOC(F)F)c(OCCOC(F)F)cc12` [2(Hh), 6,7-bis[2-(difluoromethoxy)ethoxy]-N-(2-fluorophenyl)quinazolin-4-amine], the “MLM (30 min)” value in data set [1] amounted to 51.8. In data set [2], the HLM (30 min) amounted to 71.6%.

In the case of `Fc1cccc(F)c1Nc1ncnc2cc(OCCOC(F)F)c(OCCOC(F)F)cc12` [2(Kk), 6,7-bis[2-(difluoromethoxy)ethoxy]-N-(2,6-difluorophenyl)quinazolin-4-amine], in data set [1], the “MLM (30 min)” value worked out at 43.7. The HLM (30 min) in data set [2] amounted to 77.6%.

In the case of `Fc1cc(F)c(Nc2ncnc3cc(OCCOC(F)F)c(OCCOC(F)F)cc23)c(F)c1` [2(Ll), 6,7-bis[2-(difluoromethoxy)ethoxy]-N-(2,4,6-trifluorophenyl)quinazolin-4-amine], the “MLM (30 min)” value in data set [1] is reported as 39.3. In data set [2], the HLM (30 min) is 82.1%.

By IC50 is commonly meant the concentration that inhibits the measured activity by half. For `C#Cc1cccc(Nc2ncnc3cc(OCCOC(F)F)c(OCCOC(F)F)cc23)c1F` [2(Nn)], the IC50 was 0.587 nM at EGFR and 0.977 nM at EGFR (L858R).

`COc1cc2ncnc(Nc3ccc(F)c(Cl)c3F)c2cc1OC(=O)N1CCC(OC(F)F)CC1` [2(Oo), [4-(3-chloro-2,4-difluoro-anilino)-7-methoxy-quinazolin-6-yl] 4-(difluoromethoxy)piperidine-1-carboxylate]: the results for the concentration for half-maximal inhibition (IC50) at EGFR and on EGFR (L858R) were 0.0205 nM and 0.052 nM, respectively.

As to `COc1cc2ncnc(Nc3ccc(F)c(Cl)c3F)c2cc1OC(=O)N1CCC[C@H](OC(F)F)C1` [2(Pp), [4-(3-chloro-2,4-difluoro-anilino)-7-methoxy-quinazolin-6-yl] (3S)-3-(difluoromethoxy)piperidine-1-carboxylate], the IC50 was found to be 0.143 nM at EGFR and 0.345 nM at EGFR (L858R).

Consider `Fc1c(Nc2ncnc3cc(OCCOC(F)F)c(OCCOC(F)F)cc23)ccc(Cl)c1Cl` [2(a), N-(3,4-dichloro-2-fluoro-phenyl)-6,7-bis[2 (difluoromethoxy)ethoxy]quinazolin-4-amine], for which, in data set [1], the “MLM (30 min)” value came to 72.5. In addition, in data set [2], the HLM (30 min) amounted to 90.7%.

Regarding `C#Cc1cccc(Nc2ncnc3cc(OCCOC(F)F)c(OCCOC(F)F)cc23)c1` [2(b), 6,7-bis[2-(difluoromethoxy)ethoxy]-N-(3-ethynylphenyl)quinazolin-4-amine], the “MLM (30 min)” value in data set [1] came to 94.3. The HLM (30 min) in data set [2] came out at 96.4%.

Regarding `Fc1ccc(Nc2ncnc3cc(OCCOC(F)F)c(OCCOC(F)F)cc23)cc1Cl` [2(c), N-(3-chloro-4-fluoro-phenyl)-6,7-bis[2-(difluoromethoxy)ethoxy]quinazolin-4-amine], the “MLM (30 min)” value in data set [1] is 94.6. Besides, in data set [2], the HLM (30 min) amounted to 88.5%.

Turning to `Fc1ccc(Nc2ncnc3cc(OCCOC(F)F)c(OCCOC(F)F)cc23)c(F)c1Cl` [2(d), N-(3-chloro-2,4-difluoro-phenyl)-6,7-bis[2-(difluoromethoxy)ethoxy]quinazolin-4-amine], in data set [1], the “MLM (30 min)” value is 90.4. Also, the HLM (30 min) in data set [2] was 83.1%.

For the compound `Fc1cc(Cl)ccc1Nc1ncnc2cc(OCCOC(F)F)c(OCCOC(F)F)cc12` [2(e), N-(4-chloro-2-fluoro-phenyl)-6,7-bis[2-(difluoromethoxy)ethoxy]quinazolin-4-amine], in data set [1], the “MLM (30 min)” value is 67.8. Also, the HLM (30 min) in data set [2] was found to be 89.6%.

For `COc1cc2ncnc(Nc3cccc(Cl)c3F)c2cc1OCCOC(F)F` [2(i), N-(3-chloro-2-fluoro-phenyl)-6-[2-(difluoromethoxy)ethoxy]-7-methoxy-quinazolin-4-amine], in data set [1], the “MLM (30 min)” value is 1.5. In addition, the HLM (30 min) in data set [2] amounted to 19.7%.

As for `COc1cc2ncnc(Nc3ccc(F)c(Cl)c3F)c2cc1OCCOC(F)F` [2(k), N-(3-chloro-2,4-difluoro-phenyl)-6-[2-(difluoromethoxy)ethoxy]-7-methoxy-quinazolin-4-amine], in data set [1], the “MLM (30 min)” value is on record as 0.7. Moreover, in data set [2], the HLM (30 min) turned out to be 60.4%.

Regarding `COc1cc2ncnc(Nc3ccc(F)c(Cl)c3F)c2cc1NC(=O)N1CCC(COC(F)F)CC1` [3(A), N-[4-(3-chloro-2,4-difluoro-anilino)-7-methoxy-quinazolin-6-yl]-4-(difluoromethoxymethyl)piperidine-1-carboxamide], the half-inhibitory concentration (IC50) on EGFR was found to be 0.0298 nM; on EGFR (L858R) it was 0.0891 nM.

As for `COc1cc2ncnc(Nc3ccc(F)c(Cl)c3F)c2cc1NC(=O)N1CC(OC(F)F)C1` [3(B), N-[4-(3-chloro-2,4-difluoro-anilino)-7-methoxy-quinazolin-6-yl]-3-(difluoromethoxy)azetidine-1-carboxamide], the IC50 at EGFR is 0.0125 nM; at EGFR (L858R), 0.0138 nM.

Broadly, the Papp A→B is how fast a substance crosses the layer from the apical side. Lower therefore signals slow passage. Broadly, the Papp B→A is the apparent permeability from the basolateral to the apical side of a cell layer. Take `C[C@H]1O[C@@H](O[C@H]2[C@@H](O)C[C@H](O[C@H]3[C@@H](O)C[C@H](O[C@H]4CC[C@@]5(C)[C@H](CC[C@@H]6[C@@H]5C[C@@H](O)[C@]5(C)[C@@H](C7=CC(=O)OC7)CC[C@]65O)C4)O[C@@H]3C)O[C@@H]2C)C[C@H](O)[C@@H]1O` [Digoxin]: the recovery at 120 min, 5 μM at P-gp (setting [4]) stood at 76.9%; at P-gp (setting [5]) it was 84.3%; on P-gp (setting [6]), 90.3%; at P-gp (setting [7]), 99.7%. The same compound came in with an apical-to-basolateral permeability (Papp A→B) at 120 min, 5 μM at P-gp (pH 7.4, Caco-2, Verapamil 0 μM) of 0.64 ×10⁻⁶ cm/s. The Papp B→A at 120 min, 5 μM on P-gp (pH 7.4, Caco-2, Verapamil 0 μM) came to 15.8 ×10⁻⁶ cm/s.

Broadly, the Cmax is the maximum level reached in the sampled fluid or tissue. As usually defined, the Tmax is the time at which the peak concentration occurs. As for `C#Cc1cccc(Nc2ncnc3cc(OCCOC)c(OCCOC)cc23)c1` [Erlotinib•HCl, N-(3-ethynylphenyl)-6,7-bis(2-methoxyethoxy)quinazolin-4-amine], in data set [3] (Sprague-Dawley), the concentration peaked (Cmax) at 828 ng/g and the time of peak concentration (Tmax) turned out to be 8 h. Besides, in data set [3], the AUCInf was 18449 ng·h/g and the AUClast came to 14522 ng·h/g. Also, the recovery at 120 min, 5 μM at P-gp (setting [4]) is 55.5%. In addition, the recovery at 120 min, 5 μM on P-gp (setting [5]) is 56.2%. For the same compound, on P-gp (setting [6]), the recovery at 120 min, 5 μM amounted to 76.8%. In addition, the recovery at 120 min, 5 μM at P-gp (setting [7]) came to 58%. Moreover, at P-gp (pH 7.4, Caco-2, Verapamil 0 μM), the apical-to-basolateral permeability (Papp A→B) at 120 min, 5 μM amounted to 16 ×10⁻⁶ cm/s and the Papp B→A at 120 min, 5 μM is 13.9 ×10⁻⁶ cm/s.

The efflux ratio is a quotient of directional permeabilities that is used to spot active efflux. `CC(C)NCC(O)COc1cccc2ccccc12` (centres unmarked) [Propranolol]: the recovery at 120 min, 5 μM at P-gp (setting [4]) was found to be 69.8%. In addition, the recovery at 120 min, 5 μM on P-gp (setting [5]) was 85%. Besides, at P-gp (pH 7.4, Caco-2, Verapamil 0 μM), the Papp A→B at 120 min, 5 μM turned out to be 25.1 ×10⁻⁶ cm/s; the apparent permeability from basolateral to apical (Papp B→A) at 120 min, 5 μM was determined as 16.3 ×10⁻⁶ cm/s; the efflux ratio at 120 min, 5 µM amounted to 0.65.
